Test: xn = mol fraction of the nth substance listed, in the solute-free solvent

CC(C)C(=O)Nc1ccc([N+](=O)[O-])c(C(F)(F)F)c1 + CCO + O
solubility (g/100 g solution)
Settings | 278.15 K | 283.15 K | 288.15 K | 293.15 K | 298.15 K | 303.15 K | 308.15 K | 313.15 K | 318.15 K | 323.15 K
x2 = 0.04165 | 0.00282 | 0.00366 | 0.00476 | 0.00623 | 0.00797 | 0.0102 | 0.0129 | 0.0162 | 0.0203 | 0.0251
x2 = 0.08908 | 0.0183 | 0.0236 | 0.0305 | 0.0388 | 0.0499 | 0.0632 | 0.0793 | 0.0976 | 0.122 | 0.148
x2 = 0.1436 | 0.0774 | 0.0967 | 0.124 | 0.158 | 0.199 | 0.246 | 0.305 | 0.377 | 0.462 | 0.568
x2 = 0.2068 | 0.289 | 0.358 | 0.447 | 0.563 | 0.694 | 0.851 | 1.04 | 1.26 | 1.54 | 1.86
x2 = 0.2812 | 0.894 | 1.09 | 1.34 | 1.62 | 1.93 | 2.32 | 2.77 | 3.31 | 3.89 | 4.58
x2 = 0.3698 | 2.17 | 2.59 | 3.2 | 3.88 | 4.59 | 5.48 | 6.38 | 7.52 | 8.74 | 10.2
x2 = 0.4772 | 4.83 | 5.78 | 6.84 | 8.03 | 9.49 | 11 | 12.8 | 14.7 | 16.8 | 19.1
x2 = 0.6101 | 8.9 | 10.5 | 12.3 | 14.3 | 16.5 | 19 | 21.5 | 24.4 | 27.2 | 30.6
x2 = 0.7788 | 13.7 | 15.9 | 18.4 | 21.1 | 24.4 | 27.7 | 30.7 | 34.4 | 38.1 | 41.7

COC(=O)Nc1nc2ccccc2[nH]1 + CO + O
solubility (g/100 g solution)
Settings | 278.15 K | 283.15 K | 288.15 K | 293.15 K | 298.15 K | 303.15 K | 308.15 K | 313.15 K | 318.15 K
x2 = 0.05887 | 0.00186 | 0.00222 | 0.00268 | 0.00321 | 0.00385 | 0.00444 | 0.00519 | 0.00603 | 0.00702
x2 = 0.1235 | 0.00537 | 0.00636 | 0.00764 | 0.00907 | 0.0107 | 0.0124 | 0.0144 | 0.0166 | 0.0191
x2 = 0.1941 | 0.00989 | 0.0117 | 0.0141 | 0.0168 | 0.0198 | 0.0228 | 0.0265 | 0.0306 | 0.0353
x2 = 0.2725 | 0.0136 | 0.0162 | 0.0196 | 0.0233 | 0.0275 | 0.032 | 0.0372 | 0.0432 | 0.0499
x2 = 0.36 | 0.0154 | 0.0185 | 0.0226 | 0.0279 | 0.0321 | 0.0378 | 0.0443 | 0.0516 | 0.06
x2 = 0.4579 | 0.0159 | 0.0192 | 0.0239 | 0.0289 | 0.0343 | 0.0409 | 0.0482 | 0.0567 | 0.0663
x2 = 0.5666 | 0.016 | 0.0196 | 0.0245 | 0.03 | 0.0357 | 0.0432 | 0.0513 | 0.0609 | 0.0717
x2 = 0.6924 | 0.0163 | 0.0203 | 0.0258 | 0.0316 | 0.0381 | 0.0463 | 0.0557 | 0.0664 | 0.0791
x2 = 0.8362 | 0.0175 | 0.0219 | 0.0281 | 0.0347 | 0.0418 | 0.0516 | 0.0624 | 0.075 | 0.0897

c1ccc2c(c1)CCc1ccccc1N2 + CC(C)O + O
solubility (g/100 g solution)
Settings | 283.15 K | 288.15 K | 293.15 K | 298.15 K | 303.15 K | 308.15 K | 313.15 K | 318.15 K | 323.15 K | 328.15 K
x2 = 0.03176 | 0.0176 | 0.0251 | 0.0346 | 0.0488 | 0.0604 | 0.0841 | 0.111 | 0.148 | 0.194 | 0.252
x2 = 0.0697 | 0.0729 | 0.101 | 0.136 | 0.186 | 0.24 | 0.32 | 0.411 | 0.527 | 0.674 | 0.851
x2 = 0.1134 | 0.12 | 0.164 | 0.22 | 0.296 | 0.38 | 0.499 | 0.636 | 0.808 | 1.02 | 1.28
x2 = 0.1667 | 0.119 | 0.156 | 0.212 | 0.286 | 0.384 | 0.504 | 0.625 | 0.779 | 0.979 | 1.22
x2 = 0.2299 | 0.126 | 0.162 | 0.214 | 0.281 | 0.369 | 0.484 | 0.601 | 0.762 | 0.947 | 1.18
x2 = 0.3101 | 0.114 | 0.153 | 0.205 | 0.27 | 0.348 | 0.452 | 0.575 | 0.726 | 0.915 | 1.14
x2 = 0.4103 | 0.132 | 0.176 | 0.237 | 0.308 | 0.396 | 0.511 | 0.648 | 0.814 | 1.02 | 1.27
x2 = 0.5463 | 0.168 | 0.221 | 0.295 | 0.38 | 0.487 | 0.622 | 0.771 | 0.958 | 1.18 | 1.47
x2 = 0.7321 | 0.172 | 0.219 | 0.296 | 0.374 | 0.48 | 0.613 | 0.778 | 0.975 | 1.22 | 1.51

From the CheMixHub drug solubility set
